The test system of data set [1] is SMN2 minigene mRNA (SMN2-A minigene) in HEK293H cells. Briefly: SMN2 minigene mRNA splicing RT-qPCR assay in cultured cells. Particulars: Homo sapiens, HEK293-H; concentration increasing full length SMN2 mRNA 1.5-fold relative to vehicle-treated cells; HEK293H cells with SMN2-A minigene, 24 hours, 7-point concentration data; read-out: EC1.5x for production of full length SMN2 mRNA. Type of data set: cell-based, human. A digest of the protocol:
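HEK293H cells stably carrying the SMN2-A minigene were treated for 24 h at 37 °C with a 7-point, 3.16-fold dilution series of compound. Multiplex RT-qPCR measured exon 7-containing minigene FL mRNA against GAPDH, expressed relative to vehicle by modified ΔΔCt; the EC1.5× is the concentration giving a 1.5-fold increase.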
(In qPCR the cycle at which signal appears reflects the starting amount.)

In data set [2] the test system is Smn protein in SMA patient fibroblast cells (GM03813). Briefly: Smn protein assay in cultured cells (SMN HTRF). The class given is cell-based, human. The conditions noted are these: SMA patient fibroblast cells, 48 hours; for EC1.5x for Smn protein expression: 7-point concentration curve, SMN HTRF, concentration producing 1.5 times Smn protein vs DMSO vehicle control; for maximum fold (Fold) increase of Smn protein: 7-point concentration data, fold relative to vehicle control. In short, it runs like this:
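SMA patient fibroblasts (5,000 cells/well, DMEM-10% FBS) were treated for 48 h at 37 °C with a 7-point, 3.16-fold dilution series in triplicate. RIPA lysates were probed by HTRF (anti-SMN d2/kryptate, overnight, room temperature), reading 665/620 nm. EC1.5× is the concentration giving 1.5-fold Smn over DMSO vehicle.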
A general note: In TR-FRET formats the signal depends on donor and acceptor labels being close together.

Bounds are passed on as bounds.

A word on the melting point: it is the temperature of the solid-liquid transition. `Cc1cn2cc(-c3cc(=O)n4cc(N5CCN[C@@H](C)C5)ccc4n3)cc(Cl)c2n1` [Compound 291, 2-(8-chloro-2-methylimidazo[1,2-a]pyridin-6-yl)-7-[(3S)-3-methylpiperazin-1-yl]-4H-pyrido[1,2-a]pyrimidin-4-one] yielded a melting point of 236 to 239 °C. Further, the EC (1.5-fold increase) in data set [1] was under 0.1 µM. Besides, in data set [2], the “EC1.5x for Smn protein expression” value is “**** (an EC1.5x≤0.3 μM is indicated by four stars (****))” and the “maximum fold (Fold) increase of Smn protein” value (“maximum fold (Fold) increase” for short) is listed as “***** (a fold increase >1.65 is indicated by five stars (*****))”.
For `CCN(CC)C1CCN(c2cc(C)c3nc(-c4ccc(OC)c(OC)c4)cc(=O)n3c2)CC1` [Compound 435, 7-[4-(diethylamino)piperidin-1-yl]-2-(3,4-dimethoxyphenyl)-9-methyl-4H-pyrido[1,2-a]pyrimidin-4-one], the melting point is 149 to 155 °C. The EC (1.5-fold increase) in data set [1] was 0.1 to 0.3 µM. Besides, in data set [2], the “maximum fold (Fold) increase” value is “*** (a fold increase between >1.35 and ≤1.5 is indicated by three stars (***))”.
For the compound `CCCN1CCC(c2cc(C)c3nc(-c4cc5c(C)nc(C)cn5n4)cc(=O)n3c2)CC1` [Compound 712, 2-(4,6-dimethylpyrazolo[1,5-a]pyrazin-2-yl)-9-methyl-7-(1-propylpiperidin-4-yl)-4H-pyrido[1,2-a]pyrimidin-4-one], the melting point lay in the range of 216 to 223 °C. Moreover, the EC (1.5-fold increase) in data set [1] is under 0.1 µM. In data set [2], the “EC1.5x for Smn protein expression” value is given as “**** (an EC1.5x≤0.3 μM is indicated by four stars (****))” and the “maximum fold (Fold) increase” value is on record as “***** (a fold increase >1.65 is indicated by five stars (*****))”.
As to `Cc1nc2cc(-c3cc(=O)n4cc(N5C[C@@H](C)N[C@@H](C)C5)ccc4n3)ccc2s1` [Compound 175, 7-[(3R,5S)-3,5-dimethylpiperazin-1-yl]-2-(2-methyl-1,3-benzothiazol-5-yl)-4H-pyrido[1,2-a]pyrimidin-4-one], the melting point lay in the range of 208 to 212 °C. Further, the EC (1.5-fold increase) in data set [1] is under 0.1 µM. In addition, in data set [2], the “EC1.5x for Smn protein expression” value is “*** (an EC1.5× between >0.3 μM and ≤1 μM is indicated by three stars (***))”; the “maximum fold (Fold) increase” value is “**** (a fold increase between >1.5 and ≤1.65 is indicated by four stars (****))”.
`CCc1nc(C)cn2nc(-c3cc(=O)n4cc(C5CCNCC5)ccc4n3)cc12` [Compound 656, 2-(4-ethyl-6-methylpyrazolo[1,5-a]pyrazin-2-yl)-7-(piperidin-4-yl)-4H-pyrido[1,2-a]pyrimidin-4-one]: the melting point lay in the range of 236 to 238 °C. The EC (1.5-fold increase) in data set [1] is under 0.1 µM. In data set [2], the “EC1.5x for Smn protein expression” value was “**** (an EC1.5x≤0.3 μM is indicated by four stars (****))”; the “maximum fold (Fold) increase” value is “**** (a fold increase between >1.5 and ≤1.65 is indicated by four stars (****))”.
With `Cc1cn2cc(-c3ccc4nc(C5CCN(C)CC5)cc(=O)n4c3)cc(F)c2n1` [Compound 462, 7-(8-fluoro-2-methylimidazo[1,2-a]pyridin-6-yl)-2-(1-methylpiperidin-4-yl)-4H-pyrido[1,2-a]pyrimidin-4-one], the melting point was in the range of 235 to 238 °C. Besides, in data set [1], the EC (1.5-fold increase) is under 0.1 µM. Moreover, in data set [2], the “EC1.5x for Smn protein expression” value is “**** (an EC1.5x≤0.3 μM is indicated by four stars (****))” and the “maximum fold (Fold) increase” value is on record as “***** (a fold increase >1.65 is indicated by five stars (*****))”.
In turn, `Cc1cn2cc(-c3cc(=O)n4cc(C5CCN(CCO)CC5)ncc4n3)ccc2n1` [Compound 581, 7-[1-(2-hydroxyethyl)piperidin-4-yl]-2-(2-methylimidazo[1,2-a]pyridin-6-yl)-4H-pyrazino[1,2-a]pyrimidin-4-one] yielded a melting point of 250 to 252 °C. Also, the EC (1.5-fold increase) in data set [1] fell in the range of 0.1 to 0.3 µM. For the same compound, in data set [2], the “EC1.5x for Smn protein expression” value is “*** (an EC1.5× between >0.3 μM and ≤1 μM is indicated by three stars (***))”; the “maximum fold (Fold) increase” value is on record as “***** (a fold increase >1.65 is indicated by five stars (*****))”.
As to `COc1ccc(-c2cc(=O)n3cc(C4CCN(C)CC4)cc(C)c3n2)cc1F` [Compound 329, 2-(3-fluoro-4-methoxyphenyl)-9-methyl-7-(1-methylpiperidin-4-yl)-4H-pyrido[1,2-a]pyrimidin-4-one], the melting point was 198 to 203 °C. In addition, the EC (1.5-fold increase) in data set [1] is under 0.1 µM. In data set [2], the “EC1.5x for Smn protein expression” value was “** (an EC1.5× between >1 μM and ≤3 μM is indicated by two stars (**))”; the “maximum fold (Fold) increase” value is “**** (a fold increase between >1.5 and ≤1.65 is indicated by four stars (****))”.
In turn, `CN1CCCN(c2ccc3nc(-c4ccc5c(c4)OCCO5)cc(=O)n3c2)CC1` [Compound 39, 2-(2,3-dihydro-1,4-benzodioxin-6-yl)-7-(4-methyl-1,4-diazepan-1-yl)-4H-pyrido[1,2-a]pyrimidin-4-one] gave a melting point of 150 to 152 °C. In addition, the EC (1.5-fold increase) in data set [1] lay within 3 to 30 µM. In addition, the “maximum fold (Fold) increase” value in data set [2] is “* (A maximum fold increase of ≤1.2 is indicated by one star (*))”.
Turning to `Cc1cn2cc(-c3cc(=O)n4cc(N5CCN(C(C)C)[C@@H](C)C5)ccc4n3)cc(Cl)c2n1` [Compound 498, 2-(8-chloro-2-methylimidazo[1,2-a]pyridin-6-yl)-7-[(3S)-3-methyl-4-(propan-2-yl)piperazin-1-yl]-4H-pyrido[1,2-a]pyrimidin-4-one], the melting point was in the range of 264 to 270 °C. Besides, the EC (1.5-fold increase) in data set [1] is under 0.1 µM. Also, in data set [2], the “EC1.5x for Smn protein expression” value is given as “**** (an EC1.5x≤0.3 μM is indicated by four stars (****))” and the “maximum fold (Fold) increase” value is given as “***** (a fold increase >1.65 is indicated by five stars (*****))”.
For `Cc1ccc(-c2cc(=O)n3cc(N4CCNCC4)ccc3n2)cc1F` [Compound 157, 2-(3-fluoro-4-methylphenyl)-7-(piperazin-1-yl)-4H-pyrido[1,2-a]pyrimidin-4-one], the melting point was in the range of 174 to 176 °C. Further, in data set [1], the EC (1.5-fold increase) is 1 to 3 µM. Further, the “maximum fold (Fold) increase” value in data set [2] was “** (a fold increase between >1.2 and ≤1.35 is indicated by two stars (**))”.
With `Cc1cn2nc(-c3cc(=O)n4cc(N5CCC(C)(N)CC5)ccc4n3)cc2c(C)n1` [Compound 584, 7-(4-amino-4-methylpiperidin-1-yl)-2-(4,6-dimethylpyrazolo[1,5-a]pyrazin-2-yl)-4H-pyrido[1,2-a]pyrimidin-4-one], the melting point was 200 to 203 °C. For the same compound, the EC (1.5-fold increase) in data set [1] is under 0.1 µM. In addition, in data set [2], the “EC1.5x for Smn protein expression” value is “**** (an EC1.5x≤0.3 μM is indicated by four stars (****))” and the “maximum fold (Fold) increase” value is recorded as “***** (a fold increase >1.65 is indicated by five stars (*****))”.
Consider `Cc1cn2ccc(-c3cc(=O)n4cc(C5CCNCC5)ccc4n3)cc2n1` [Compound 556, 2-(2-methylimidazo[1,2-a]pyridin-7-yl)-7-(piperidin-4-yl)-4H-pyrido[1,2-a]pyrimidin-4-one], for which the melting point lay within 257 to 260 °C. For the same compound, the EC (1.5-fold increase) in data set [1] was 0.3 to 1 µM. In data set [2], the “EC1.5x for Smn protein expression” value was “** (an EC1.5× between >1 μM and ≤3 μM is indicated by two stars (**))”; the “maximum fold (Fold) increase” value was “*** (a fold increase between >1.35 and ≤1.5 is indicated by three stars (***))”.
`Cc1cn2nc(-c3cc(=O)n4cc(C5=CCNCC5)ccc4n3)cc2cn1` [Compound 473, 2-(6-methylpyrazolo[1,5-a]pyrazin-2-yl)-7-(1,2,3,6-tetrahydropyridin-4-yl)-4H-pyrido[1,2-a]pyrimidin-4-one]: the melting point lay within 260 to 265 °C. In data set [1], the EC (1.5-fold increase) is under 0.1 µM. Further, in data set [2], the “EC1.5x for Smn protein expression” value is given as “**** (an EC1.5x≤0.3 μM is indicated by four stars (****))” and the “maximum fold (Fold) increase” value is “***** (a fold increase >1.65 is indicated by five stars (*****))”.
The corresponding values for `Cc1cn2nc(-c3cc(=O)n4cc(N5CCN6CCC[C@@H]6C5)ccc4n3)cc2c(C)n1` [Compound 337, 2-(4,6-dimethylpyrazolo[1,5-a]pyrazin-2-yl)-7-[(8aR)-hexahydropyrrolo[1,2-a]pyrazin-2(1H)-yl]-4H-pyrido[1,2-a]pyrimidin-4-one] are 228 to 230 °C, under 0.1 µM, “**** (an EC1.5x≤0.3 μM is indicated by four stars (****))” and “***** (a fold increase >1.65 is indicated by five stars (*****))”.
Compound `COc1cncc(-c2cc(=O)n3cc(N4CCNCC4)ccc3n2)c1` [Compound 229, 2-(5-methoxypyridin-3-yl)-7-(piperazin-1-yl)-4H-pyrido[1,2-a]pyrimidin-4-one] registered a melting point of 192 to 195 °C. Also, in data set [1], the EC (1.5-fold increase) fell in the range of 0.3 to 1 µM. Besides, in data set [2], the “EC1.5x for Smn protein expression” value is “* (An EC1.5× for Smn protein expression between >3 μM and ≤10 μM is indicated by one star (*))”; the “maximum fold (Fold) increase” value was “*** (a fold increase between >1.35 and ≤1.5 is indicated by three stars (***))”.
